How the values were obtained:
EGFR Del19/T790M/C797S = EGFR Del19/T790M/C797S (Homo sapiens, UniProt P00533, C797S/T790M, form not given); assay: Enzyme IC50, EGFR Del19/T790M/C797S; format: biochemical
[1] = tested on: BaF3-EGFR (Del19/T790M/C797S) cells; assay: Inhibitory activity on Ba/F3 cell proliferation (CellTiter-Glo, 72 hours); format: cell-based; conditions: Ba/F3 cells expressing EGFR Del19/T790M/C797S
Experimental: (§1) The following experiments were performed to evaluate the inhibitory activity of the compound represented by Chemical Formula 1 according to the present invention on the proliferation of Ba/F3 cells expressing EGFR mutants.
(§2) BaF3-EGFR (WT) and BaF3-EGFR (Del19/T790M/C797S) cells were seeded in a clear bottom white 96-well plate at a density of 3×10^3/100 μl/well, and then 0.5 μl/well of the culture medium, containing the compounds at 12 concentrations (0.00001-2 mM) serially diluted in 3 folds and the DMSO control, was added to a final concentration of 0.00005-10 μM, followed by culturing in a 37° C. CO2 incubator for 72 hours. After 72 hours, the plates treated with the compounds were taken out, treated with 100 μl/well of CellTiter-Glo® 2.0 Assay (Promega) solution, and mixed well. After mixing well at room temperature for about 10 minutes, […] was measured using a microplate reader. As to Data, GI50 (μM) values were calculated using GraphPad Prism 8.3.0 (GraphPad software Inc., San Diego) as percentages in proportion to vehicle-based treated cells. The result values were calculated as a cell growth rate (%) compared to the control group. A graph was created using the GraphPad Prism version 5.0 program, and GI50 (μM) values were calculated.

BaF3-EGFR (WT) cells = assay: as above; format: cell-based; conditions: Ba/F3 cells expressing EGFR WT
Experimental: as §1, §2

EGFR Del19/T790M/C797S, sequence (P00533 25-1210 T790M/C797S, form open): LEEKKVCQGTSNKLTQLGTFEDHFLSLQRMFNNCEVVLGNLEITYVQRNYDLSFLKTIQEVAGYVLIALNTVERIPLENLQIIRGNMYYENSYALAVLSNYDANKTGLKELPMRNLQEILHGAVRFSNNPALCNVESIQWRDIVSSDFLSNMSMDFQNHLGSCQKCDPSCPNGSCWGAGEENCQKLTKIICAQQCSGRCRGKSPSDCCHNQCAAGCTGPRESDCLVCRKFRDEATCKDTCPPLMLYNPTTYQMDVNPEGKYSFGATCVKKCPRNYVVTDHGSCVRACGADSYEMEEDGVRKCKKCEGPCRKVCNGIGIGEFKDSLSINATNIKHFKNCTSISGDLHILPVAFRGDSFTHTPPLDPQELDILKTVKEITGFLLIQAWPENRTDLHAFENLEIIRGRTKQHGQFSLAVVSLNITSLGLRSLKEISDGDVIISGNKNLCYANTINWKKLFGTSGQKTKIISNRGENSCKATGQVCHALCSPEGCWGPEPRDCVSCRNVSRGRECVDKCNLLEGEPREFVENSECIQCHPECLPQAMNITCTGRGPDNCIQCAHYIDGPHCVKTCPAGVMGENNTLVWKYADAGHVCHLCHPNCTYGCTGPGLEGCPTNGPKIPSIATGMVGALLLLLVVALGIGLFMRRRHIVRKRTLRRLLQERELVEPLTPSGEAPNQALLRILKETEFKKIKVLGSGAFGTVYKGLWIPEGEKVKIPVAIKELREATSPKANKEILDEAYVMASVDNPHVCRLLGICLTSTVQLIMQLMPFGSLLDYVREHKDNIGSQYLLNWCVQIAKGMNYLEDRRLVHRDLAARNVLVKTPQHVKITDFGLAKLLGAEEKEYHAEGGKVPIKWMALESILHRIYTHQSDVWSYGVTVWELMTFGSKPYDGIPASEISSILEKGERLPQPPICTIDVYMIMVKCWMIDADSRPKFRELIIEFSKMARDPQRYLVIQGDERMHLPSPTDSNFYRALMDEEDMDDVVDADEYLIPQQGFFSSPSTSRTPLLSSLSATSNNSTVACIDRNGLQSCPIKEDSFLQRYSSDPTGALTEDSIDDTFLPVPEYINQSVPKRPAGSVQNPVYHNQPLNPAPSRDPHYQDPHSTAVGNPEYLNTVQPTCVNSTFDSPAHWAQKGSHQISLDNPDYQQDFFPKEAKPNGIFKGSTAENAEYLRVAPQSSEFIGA

Row | Structure (SMILES) | IC50 (EGFR Del19/T790M/C797S) | GI50 [1] | GI50 (BaF3-EGFR (WT) cells)
1 | COc1cc(N2CC3(CCOCC3)C2)c(-c2cnn(C)c2)cc1Nc1nc(Nc2ccc3nccnc3c2P(C)(C)=O)c2cc[nH]c2n1 [Example 33, (6-((2-((2-methoxy-5-(1-methyl-1H-pyrazol-4-yl)-4-(7-oxa-2-azaspiro[3.5]nonane-2-yl)phenyl)amino)-7H-pyrrolo[2,3-d]pyrimidin-4-yl)amino)quinoxalin-5-yl)dimethyl-phosphine oxide] | ≤ 0.05 µM | > 0.1 µM | > 0.1 µM
2 | COc1cc(N2C[C@@H]3C[C@H]2CO3)c(-c2cnn(C)c2)cc1Nc1nc(Nc2ccc3nccnc3c2P(C)(C)=O)c2cc[nH]c2n1 [Example 26, (6-((2-((4-((1s,4S)-2-oxa-5-azabicyclo [2.2.1]heptan-5-yl)-2-methoxy-5-(1-methyl-1H-pyrazol-4-yl)phenyl)amino)-7H-pyrrolo[2,3-d]pyrimidin-4-yl)amino)quinoxalin-5-yl)dimethyl-phosphine oxide] | ≤ 0.05 µM | ≤ 0.05 µM | > 0.1 µM
3 | COc1cc(N2CCN(C)CC2)c(-c2cnn(C)c2)cc1Nc1nc(Nc2ccc3nccnc3c2P(C)(C)=O)c2cc[nH]c2n1 [Example 21, (6-((2-((2-methoxy-5-(1-methyl-1H-pyrazol-4-yl)-4-(4-methylpiperazin-1-yl)phenyl)amino)-7H-pyrrolo[2,3-d]pyrimidin-4-yl)amino)quinoxalin-5-yl) dimethyl-phosphine oxide] | ≤ 0.05 µM | ≤ 0.05 µM | > 0.1 µM
4 | COc1cc(N2CCN3CCCC[C@@H]3C2)c(-c2cnn(C)c2)cc1Nc1nc(Nc2ccc3nccnc3c2P(C)(C)=O)c2cc[nH]c2n1 [Example 43, (R)-(6-((2-((2-methoxy-5-(1-methyl-1H-pyrazol-4-yl)-4-(octahydro-2H-pyrido[1,2-alpyrazin)-2-yl)phenyl)amino)-7H-pyrrolo[2,3-d]pyrimidin-4-yl)amino)quinoxalin-5-yl)dimethyl-phosphine oxide] | ≤ 0.05 µM | ≤ 0.05 µM | 0.05 to 0.1 µM
5 | Cn1cc(-c2cc(Nc3nc(Nc4ccc5nccnc5c4P(C)(C)=O)c4cc[nH]c4n3)c(OCC(F)(F)F)cc2F)cn1 [Example 3, (6-((2-((4-fluoro-5-(1-methyl-1H-pyrazol-4-yl)-2-(2,2,2-trifluoroethoxy)phenyl)amino)-7H-pyrrolo[2,3-d]pyrimidin-4-yl)amino)quinoxalin-5-yl) dimethyl-phosphine oxide] | ≤ 0.05 µM | > 0.1 µM | > 0.1 µM
6 | COc1cc(N2CCC(N3CCN(C(C)C)CC3)CC2)c(C)cc1Nc1nc(Nc2ccc3nccnc3c2P(C)(C)=O)c2cc[nH]c2n1 [Example 62, (6-((2-((4-(4-(4-isopropyl-piperazin-1-yl)piperidin-1-yl)-2-methoxy-5-methylphenyl)amino)-7H-pyrrolo[2,3-d]pyrimidin-4-yl)amino)quinoxalin-5-yl)dimethyl-phosphine oxide] | ≤ 0.05 µM | 0.05 to 0.1 µM | > 0.1 µM
7 | COc1cc(N2C[C@H]3CC[C@@H](C2)O3)c(-c2cnn(C)c2)cc1Nc1nc(Nc2ccc3nccnc3c2P(C)(C)=O)c2cc[nH]c2n1 [Example 30, (6-((2-((4-((1R,5S)-8-oxa-3-azabicyclo [3.2.1]octan-3-yl)-2-methoxy-5-(1-methyl-1H-pyrazol-4-yl)phenyl)amino)-7H-pyrrolo[2,3-d]pyrimidin-4-yl)amino)quinoxalin-5-yl)dimethyl-phosphine oxide] | ≤ 0.05 µM | ≤ 0.05 µM | > 0.1 µM
8 | COc1cc(N2CCN(C)CC2)c(-c2cnn(C(F)F)c2)cc1Nc1nc(Nc2ccc3nccnc3c2P(C)(C)=O)c2cc[nH]c2n1 [Example 50, (6-((2-((5-(1-(difluoromethyl)-1H-pyrazol-4-yl)-2-methoxy-4-(4-methyl-piperazin-1-yl)phenyl)amino)-7H-pyrrolo[2,3-d]pyrimidin-4-yl)amino)quinoxalin-5-yl)dimethyl-phosphine oxide] | ≤ 0.05 µM | ≤ 0.05 µM | > 0.1 µM
9 | Cn1cc(-c2ccc(OCC(F)(F)F)c(Nc3nc(Nc4ccc5nccnc5c4P(C)(C)=O)c4cc[nH]c4n3)c2)cn1 [Example 5, dimethyl (6-((2-((5-(1-methyl-1H-pyrazol-4-yl)-2-(2,2,2-trifluoroethoxy)phenyl)amino)-7H-pyrrolo[2,3-d]pyrimidin-4-yl)amino)quinoxalin-5-yl)phosphine oxide] | 0.05 to 0.1 µM | > 0.1 µM | 0.05 to 0.1 µM
10 | CCN1CCN(c2cc(OC)c(Nc3nc(Nc4ccc5nccnc5c4P(C)(C)=O)c4cc[nH]c4n3)cc2-c2cnn(C(C)C)c2)CC1 [Example 48, (6-((2-((4-(4-ethylpiperazin-1-yl)-5-(1-isopropyl-1H-pyrazol-4-yl)-2-methoxyphenyl)amino)-7H-pyrrolo[2,3-d]pyrimidin-4-yl)amino)quinoxalin-5-yl)dimethyl-phosphine oxide] | ≤ 0.05 µM | > 0.1 µM | > 0.1 µM
11 | COc1cc(N2CCOCC2)c(-c2cnn(C)c2)cc1Nc1nc(Nc2ccc3nccnc3c2P(C)(C)=O)c2cc[nH]c2n1 [Example 25, (6-((2-((2-methoxy-5-(1-methyl-1H-pyrazol-4-yl)-4-morpholino-phenyl)amino)-7H-pyrrolo[2,3-d]pyrimidin-4-yl)amino)quinoxalin-5-yl)dimethyl-phosphine oxide] | ≤ 0.05 µM | ≤ 0.05 µM | > 0.1 µM

Results, then the compound that gave them:

Row | IC50 (EGFR Del19/T790M/C797S) | GI50 [1] | GI50 (BaF3-EGFR (WT) cells) | Structure (SMILES)
12 | > 0.1 µM | ≤ 0.05 µM | > 0.1 µM | COc1cc(N2CCC3(CCN(C(=O)C4(F)CC4)CC3)CC2)c(-c2cnn(C)c2)cc1Nc1nc(Nc2ccc3nccnc3c2P(C)(C)=O)c2cc[nH]c2n1 [Example 111, (9-(4-((4-((5-(dimethyl-phosphoryl)quinoxalin-6-yl)amino)-7H-pyrrolo[2,3-d]pyrimidin-2-yl)amino)-5-methoxy-2-(1-methyl-1H-pyrazol-4-yl)phenyl)-3,9-diazaspiro[5.5]undecan-3-yl)(1-fluorocyclo-propyl) methanone]
13 | ≤ 0.05 µM | > 0.1 µM | 0.05 to 0.1 µM | C=CC(=O)Nc1cc(Nc2nc(Nc3ccc4nccnc4c3P(C)(C)=O)c3cc[nH]c3n2)c(OC)cc1N1CCN(C)CC1 [Example 73, N-(5-((4-((5-(dimethyl-phosphoryl)quinoxalin-6-yl)amino)-7H-pyrrolo[2,3-d]pyrimidin-2-yl)amino)-4-methoxy-2-(4-methylpiperazin-1-yl)phenyl) acrylamide]
14 | ≤ 0.05 µM | ≤ 0.05 µM | > 0.1 µM | COc1cc(N2CCN(CC3(F)CC3)CC2)c(-c2cnn(C)c2)cc1Nc1nc(Nc2ccc3nccnc3c2P(C)(C)=O)c2cc[nH]c2n1 [Example 113, (6-((2-((4-(4-((1-fluorocyclo-propyl)methyl)piperazin-1-yl)-2-methoxy-5-(1-methyl-1H-pyrazol-4-yl)phenyl)amino)-7H-pyrrolo[2,3-d]pyrimidin-4-yl)amino)quinoxalin-5-yl)dimethyl-phosphine oxide]
15 | ≤ 0.05 µM | > 0.1 µM | > 0.1 µM | COc1cc(N2CCC(N3CCN(C)CC3)CC2)c(C)cc1Nc1nc(Nc2ccc3nccnc3c2P(C)(C)=O)c2nc[nH]c2n1 [Example 104, (6-((2-((2-methoxy-5-methyl-4-(4-(4-methylpiperazin-1-yl)piperidin-1-yl)phenyl)amino)-9H-purin-6-yl)amino)quinoxalin-5-yl)dimethyl-phosphine oxide]
16 | ≤ 0.05 µM | ≤ 0.05 µM | > 0.1 µM | COc1cc(N2CCC3(CCN(CC4(F)CC4)CC3)CC2)c(-c2cnn(C)c2)cc1Nc1nc(Nc2ccc3nccnc3c2P(C)(C)=O)c2cc[nH]c2n1 [Example 114, (6-((2-((4-(9-((1-fluorocyclo-propyl)methyl)-3,9-diazaspiro[5.5]undecan-3-yl)-2-methoxy-5-(1-methyl-1H-pyrazol-4-yl)phenyl)amino)-7H-pyrrolo[2,3-d]pyrimidin-4-yl)amino)quinoxalin-5-yl)dimethyl-phosphine oxide]
17 | ≤ 0.05 µM | > 0.1 µM | > 0.1 µM | Cc1cc(Nc2nc(Nc3ccc4nccnc4c3P(C)(C)=O)c3cc[nH]c3n2)c2c(c1N1CCOCC1)CCO2 [Example 122, dimethyl (6-((2-((5-methyl-4-morpholino-2,3-dihydrobenzo-furan-7-yl)amino)-7H-pyrrolo[2,3-d]pyrimidin-4-yl)amino)quinoxalin-5-yl)phosphine oxide]
18 | ≤ 0.05 µM | > 0.1 µM | > 0.1 µM | Cn1ncc(Nc2nc(Nc3ccc4nccnc4c3P(C)(C)=O)c3cc[nH]c3n2)c1Cl [Example 137, (6-((2-((5-chloro-1-methyl-1H-pyrazol-4-yl)amino)-7H-pyrrolo[2,3-d]pyrimidin-4-yl)amino)quinoxalin-5-yl)dimethyl-phosphine oxide]
19 | ≤ 0.05 µM | > 0.1 µM | > 0.1 µM | C=Cc1cc(Nc2nc(Nc3ccc4nccnc4c3P(C)(C)=O)c3cc[nH]c3n2)c(OC)cc1N1CCN(C)CC1 [Example 82, (6-((2-((2-methoxy-4-(4-methylpiperazin-1-yl)-5-vinylphenyl)amino)-7H-pyrrolo[2,3-d]pyrimidin-4-yl)amino)quinoxalin-5-yl)dimethyl-phosphine oxide]

— patent publication US20240067668A1, “HETEROARYL DERIVATIVE COMPOUND AND USE THEREOF” (VORONOI INC., priority 2020, published 2024)
